In patent US10975068B2, “6-aminopyridin-3-yl thiazoles as modulators of RORγT” (Janssen Pharmaceutica NV, priority 2016, dated 2021) one finds IC50 and Kd data, which are given here for 10 molecules.

The structures appear in SMILES notation. Like-named read-outs stand apart in the source and are kept apart here.

Assay [1] concerns IL-17 production by CD4 T cells. Briefly: Human Th17 assay. It counts as cell-based. An excerpt:
The human Th17 assay tests the effect of RORγt modulatory compounds on IL-17 production by CD4 T cells under conditions which favor Th17 differentiation. Total CD4^+ T cells were isolated from the peripheral blood mononuclear cells (PBMC) of healthy donors using a CD4^+ T cell isolation kit II, following the manufacturer's instructions (Miltenyi Biotec). Cells were resuspended in a medium of RPMI-1640 supplemented with 10% fetal bovine serum, penicillin, streptomycin, glutamate, and β-mercaptoethanol and were added to 96-well plates at 1.5×10^5 per 100 μL per well. 50 μL of compound at titrated concentrations in DMSO were added into each well at final DMSO concentration at 0.2%. Cells were incubated for 1 hour, then 50 μL of Th17 cell differentiation medium was added to each well. The final concentrations of antibodies and cytokines (R&D Systems) in differentiation medium were: 3×10^6/mL anti-CD3/CD28 beads (prepared using human T cell activation/expansion kit, Miltenyi Biotec), 10 μg/mL anti-IL4, 10 μg/mL anti-IFNγ, 10 ng/mL IL1β, 10 ng/mL IL23, 50 ng/mL IL6, 3 ng/mL TGFβ and 20 U/mL IL2. Cells were cultured at 37° C. and 5% CO2 for 3 days. Supernatants were collected and the accumulated IL-17 in culture was measured by using MULTI-SPOT® Cytokine Plate following manufacture's instruction (Meso Scale Discovery). The plate was read using Sector Imager 6000, and IL-17 concentration was extrapolated from the standard curve. The IC50s were determined by GraphPad.

For assay [2], the target named is human RORγt ligand binding domain (RORγt LBD) (Homo sapiens (Human), UniProt P51449). As to the kind of experiment: RORγt ThermoFluor® assay (thermal shift binding). Conditions: read-out: ThermoFluor® Assay, Kd. The method, boiled down: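 Binding was inferred from thermal stabilisation (ΔTm) of the E. coli-expressed RORγt LBD (0.065 mg/mL), monitored by 1,8-ANS (60 μM) emission at 500 nm during a 1 °C/min ramp. Buffer was Hepes 100 mM pH 7.0 with NaCl, GSH and Tween-20.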
(In general: DSF heats the sample and reads unfolding from a dye or from intrinsic fluorescence.)

[3] abbreviates: read-out: Human Th17 Assay, IC50 (μM).
Setting [4] is: read-out: Human Th17 Assay, IC50.

human RORγt ligand binding domain (RORγt LBD), sequence (P51449 other isoform, or with tags, fused parts or gaps): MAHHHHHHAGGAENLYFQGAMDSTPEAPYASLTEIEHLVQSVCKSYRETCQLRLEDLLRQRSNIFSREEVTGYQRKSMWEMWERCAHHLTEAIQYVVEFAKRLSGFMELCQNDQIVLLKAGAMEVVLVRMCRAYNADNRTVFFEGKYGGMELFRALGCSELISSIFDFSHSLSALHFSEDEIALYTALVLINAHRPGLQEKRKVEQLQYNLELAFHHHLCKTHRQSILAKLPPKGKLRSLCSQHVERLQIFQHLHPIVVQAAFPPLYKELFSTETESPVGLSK

Broadly, the IC50 is the concentration that inhibits the measured activity by half. The term Kd denotes the free concentration of one partner at which half of the binding sites on the other are occupied at equilibrium, for simple one-to-one binding. Regarding `CC(C)(O)CNC(=O)c1nc(C(=O)N2C3CCC2CC3)c(-c2cnc(NCC(C)(C)C(F)(F)F)cc2C(F)(F)F)s1` [Example 122, 4-((1s,4s)-7-Azabicyclo[2.2.1]heptane-7-carbonyl)-N-(2-hydroxy-2-methylpropyl)-5-(6-((3,3,3-trifluoro-2,2-dimethylpropyl)amino)-4-(trifluoromethyl)pyridin-3-yl)thiazole-2-carboxamide], in assay [1] (setting [3]), the IC50 was determined as 0.02 µM. The Kd in assay [2] amounted to 1.7 nM.

Regarding `C[C@H]1CCCN1C(=O)c1nc(C(=O)NCC(C)(C)O)sc1-c1cnc(NC2CCCC2)cc1C(F)(F)F` [Example 38, (S)-5-(6-(Cyclopentylamino)-4-(trifluoromethyl)pyridin-3-yl)-N-(2-hydroxy-2-methylpropyl)-4-(2-methylpyrrolidine-1-carbonyl)thiazole-2-carboxamide], the IC50 in assay [1] (setting [4]) was 0.081 µM. The Kd in assay [2] is 1.8 nM.

In the case of `CC[C@H](Nc1cc(C(F)F)c(-c2sc(C(=O)NCC(C)(C)O)nc2C(=O)N2CC(F)(F)C[C@@H]2C)cn1)C(F)(F)F` [Example 90, 4-((S)-4,4-Difluoro-2-methylpyrrolidine-1-carbonyl)-5-(4-(difluoromethyl)-6-(((S)-1,1,1-trifluorobutan-2-yl)amino)pyridin-3-yl)-N-(2-hydroxy-2-methylpropyl)thiazole-2-carboxamide], in assay [1] (setting [4]), the 50% inhibitory concentration (IC50) came to 0.076 µM. In assay [2], the Kd is 1.4 nM.

With `CC[C@H](Nc1cc(C(F)(F)F)c(-c2sc(C(=O)NCC(C)(C)O)nc2C(=O)N2CCC[C@@H]2C)cn1)C1CC1` (relative stereo) [Example 128, 5-(6-(((S*)-1-Cyclopropylpropyl)amino)-4-(trifluoromethyl)pyridin-3-yl)-N-(2-hydroxy-2-methylpropyl)-4-((S)-2-methylpyrrolidine-1-carbonyl)thiazole-2-carboxamide], the IC50 in assay [1] (setting [4]) worked out at 0.018 µM. Moreover, the Kd in assay [2] was 2.6 nM.

In the case of `C[C@H]1CC(F)(F)CN1C(=O)c1nc(C(=O)NCC(C)(C)O)sc1-c1cnc(NCC(C)(C)C)cc1C(F)F` [Example 115, (S)-4-(4,4-Difluoro-2-methylpyrrolidine-1-carbonyl)-5-(4-(difluoromethyl)-6-(neopentylamino)pyridin-3-yl)-N-(2-hydroxy-2-methylpropyl)thiazole-2-carboxamide], the IC50 in assay [1] (setting [4]) came to 0.022 µM. Moreover, the Kd in assay [2] worked out at 1.9 nM.

As for `C[C@H](NC(=O)c1nc(C(=O)N2CCC[C@@H]2C)c(-c2cnc(N[C@@H](C)C(F)(F)F)cc2C(F)F)s1)C(C)(C)O` [Example 199, 5-(4-(Difluoromethyl)-6-(((S)-1,1,1-trifluoropropan-2-yl)amino)pyridine-3-yl)-N—((S)-3-hydroxy-3-methylburan-2-yl)-4-((S)-2-methylpyrrolidine-1-carbonyl)thiazole-2-carboxamide], the IC50 in assay [1] (setting [4]) came out at 0.1 µM. In assay [2], the Kd was found to be 5.4 nM.

Turning to `CC(C)(O)CNC(=O)c1nc(C(=O)N2C3CCC2CC3)c(-c2cnc(NC3(C)CCC3)cc2C(F)F)s1` [Example 169, 4-((1s,4s)-7-Azabicyclo[2.2[1]heptane-7-carbonyl)-5-(4-(difluoromethyl)-6-((1-methylcyclobutyl)amino)pyridine-3-yl)-N-(2-hydroxy-2-methylpropyl))thiazole-2-carboxamide], in assay [1] (setting [3]), the IC50 amounted to 0.034 µM. In assay [2], the Kd was 2.7 nM.

On to `C[C@H](NC(=O)c1nc(C(=O)N2CCC[C@@H]2C)c(-c2cnc(NC(C)(C)C)cc2C(F)(F)F)s1)C(C)(C)O` [Example 336, 5-[6-(tert-Butylamino)-4-(trifluoromethyl)-3-pyridyl]-N-[(1S)-2-hydroxy-1,2-dimethyl-propyl]-4-[(2S)-2-methylpyrrolidine-1-carbonyl]thiazole-2-carboxamide], for which the IC50 in assay [1] (setting [4]) came to 0.011 µM. Moreover, in assay [2], the Kd turned out to be 1.1 nM.

Consider `C[C@H]1CCCCN1C(=O)c1nc(C(=O)NCC(C)(C)O)sc1-c1cnc(NC2CCCC2)cc1C(F)(F)F` [Example 27, (S)-5-(6-(Cyclopentylamino)-4-(trifluoromethyl)pyridin-3-yl)-N-(2-hydroxy-2-methylpropyl)-4-(2-methylpiperidine-1-carbonyl)thiazole-2-carboxamide], for which the IC50 in assay [1] (setting [4]) came to 0.016 µM. In assay [2], the equilibrium dissociation constant (Kd) is 0.52 nM.

On to `C[C@H]1CCCN1C(=O)c1nc(C(=O)NCc2n[nH]c(=O)o2)sc1-c1cnc(NC(C)(C)C)cc1C(F)(F)F` [Example 305, (S)-5-(6-(tert-Butylamino)-4-(trifluoromethyl)pyridin-3-yl)-4-(2-methylpyrrolidine-1-carbonyl)-N-((5-oxo-4,5-dihydro-1,3,4-oxadiazol-2-yl)methyl)thiazole-2-carboxamide], for which, in assay [1] (setting [4]), the IC50 was 0.089 µM. Also, the equilibrium dissociation constant (Kd) in assay [2] is 4.9 nM.
